Measured values from patent publication US10280179B2, “Spiroquinoxaline derivatives as inhibitors of non-apoptotic regulated cell-death” (Helmholtz Zentrum Munchen—Deutches Forschungszentrum Fur …, priority 2013, dated 2019).
Like-named read-outs stand apart in the source and are kept apart here.

Experiments:
Format in all cases: cell-based
[1] = tested on: human neuroblastoma cell line SH-SY5Y; experiment: Inhibition of BSO-induced non-apoptotic cell death (Example B.1); details: SH-SY5Y cells, 72 hours
Description: Inhibition of BSO-Induced Non-Apoptotic Cell Death by Compounds Disclosed Herein
L-Buthionine sulfoximine (BSO) is a well-known glutathione (GSH) depletory, which inhibits gamma-glutamyl-cysteine-synthetase, the enzyme catalyzing the rate-limiting step in GSH biosynthesis. The human neuroblastoma cell line SH-SY5Y is sensitive to BSO-induced intracellular glutathione depletion, which causes high levels of reactive oxygen species (ROS) and cellular stress mimicking cellular conditions following ischemia (cf., e.g., Yamada et al., Neurochem. Int. 59:1003-9 (2011)).
Compounds disclosed herein were evaluated for their ability to promote cell survival upon administration of a lethal dose of BSO to cell-culture medium. Briefly, SH-SY5Y cells (ATCC® CRL-2266™) were propagated in DMEM supplemented with 10% FBS/1% Penicillin-Streptomycin, and then seeded onto 96-well plates at a concentration of 750 cells/well in 100 μL of media, to which BSO (Sigma Aldrich) was added (to a final concentration of 50 μM) together with increasing concentrations of the compound to be tested, and the plates incubated at 37° C./5% CO2 for 72 hours. Compound dilutions (0.5 pM to 100 μM) were prepared from 10 mM stocks dissolved in DMSO and diluted in media. Cells treated with BSO alone were used as negative control and alpha-Tocopherol (Sigma Aldrich) was used as positive control. Compound concentrations were tested in triplicate. After incubation, cell survival was detected using the live/dead cell assay AquaBluer™ (MultiTarget Pharmaceuticals) and quantified using a fluorescence plate reader (excitation filter: 530-560 nm/emission filter: 590 nm) (SpectraMax M4; Molecular Devices). Fluorescence data so obtained was normalised to the percentage of surviving cells and IC50 values calculated using the GraphPad Prism (GraphPad Software, Inc) software package.

Pfa1 cells = experiment: Inhibition of non-apoptotic cell death after tamoxifen-induced GPx4 knockout in a recombinant cell line (Example B.4); details: Mus musculus, read-out: Pfa1/TAM IC50
Description: Inhibition of Non-Apoptotic Cell-Death by Compounds Disclosed Herein Using a Recombinant Cell Line
To combat high intracellular ROS levels, mammalian cells have evolved an intricate network of ROS scavenging in cells, in which the thioredoxin and glutathione (GSH) dependent systems prevail. […] Knockout of GPx4 in neurons causes massive neurodegeneration in cortical, cerebellar and hippocampal neurons underscoring the high relevance of ROS-induced cell death signaling in the brain. Briefly, immortalised fibroblasts from these mice were made to contain tamoxifen-inducible CreERT2, which catalyzes the functional ablation of both copies of GPx4 and resulting in a complete knockout of GPx4, a massive ROS burst, and cell death in cell culture. These cells (Pfa1 cells) were used to characterize compounds of the present invention, whereby tamoxifen (TAM) was given on day 0 along with the compound under test, and 72 hours later cell survival was evaluated using AlamarBlue.

[2] = tested on: mouse hippocampal cell line (Ht22); experiment: Inhibition of glutamate-induced non-apoptotic cell death (Example B.2); details: HT-22, Ht22 cells
Description: Inhibition of Glutamate-Induced Non-Apoptotic Cell Death by Compounds of the Present Invention
Glutamate toxicity is conferred on cells from the mouse hippocampal cell line (Ht22) by inhibition of the cysteine/glutamate antiporter, System xc-, leading to impaired cysteine uptake and subsequent GSH depletion. This model is frequently used for mimicking glutathione depletion following oxidative stress in stroke, brain trauma and other neurodegenerative diseases and cellular conditions following ischemia (for example: van Leyen et al, J. Neurochem. 92:824-30 (2005)).
Compounds disclosed herein were evaluated for their ability to promote cell survival upon administration of a lethal dose of glutamate (GLU) to the cell-culture medium.
Briefly, Ht22 cells (ATCC) were propagated DMEM supplemented with 10% FBS/1% Penicillin-Streptomycin, and then seeded onto 96-well plates at a concentration of 2,000 cells/well in 100 μL of MEDIA, simultaneously with glutamate (Sigma Aldrich) to a final concentration of 5 mM, together with increasing concentrations of the compound to be tested (0.5 pM to 100 μM), and the plates incubated at 37° C./5% CO2 for 72 hours. Compound dilutions were prepared from 10 mM stocks dissolved in DMSO and diluted in media. Cells treated with glutamate alone were used as negative control and alpha-tocopherol (Sigma Aldrich) was used as positive control. Compound concentrations were tested in triplicate. After incubation, cell survival was detected and quantified as described in Example B.1.

[3] = Cellular toxicity, same assay as Example B.4 without TAM (Example B.5); details: mouse; Pfa1 cells without TAM; read-out: TC50 (the source's name)
Description: Cellular Toxicity of Compounds of the Invention
An estimate of the toxicity for compounds of the invention was obtained by using the same assay as described in Example B.4, but without the addition of TAM. […] Such TC50 values obtained for certain compounds disclosed herein, together with an approximate therapeutic window (estimated by dividing each TC50 by the corresponding IC50 determined from example B.4) are shown in Table 3.

[4] = 50 μM BSO, read-out: SH-SY5Y/BSO IC50
[5] = glutamate-induced cell death, read-out: Ht22/GLU

Structure (SMILES) | IC50 [1, 4] | IC50 (Pfa1 cells) | IC50 [2, 5] | CC50 [3] | IC50 ([1]; BSO 50 μM, cell survival (AquaBluer), read-out: SH-SY5Y/BSO (Example B.1) IC50) | IC50 ([2]; glutamate 5 mM, 72 hours, cell survival, read-out: Ht22/GLU (Example B.2) IC50)
CCCCCCCCCCCCN1CCC2(CC1)Nc1ccccc1N=C2NCc1ccccc1 [N-261] | < 20 nM | < 100 nM | < 200 nM | 2000 to 5000 nM |  | 
Clc1cc2c(cc1Cl)NC1(CCCCC1)C(NCc1ccccc1)=N2 [C-217] | < 50 nM | < 50 nM | < 200 nM | 20000 to 50000 nM |  | 
Cc1ccccc1CNC1=Nc2ccccc2NC12CCNCC2 [N-10] | < 20 nM | < 100 nM | < 50 nM | 5000 to 10000 nM | ~5 nM | 10 to 50 nM
Clc1ccc2c(c1)N=C(NCc1ccccc1)C1(CCCCC1)N2 [C-258] | < 50 nM | < 200 nM | < 500 nM | 10000 to 20000 nM |  | 
NC1CCC2(CC1)Nc1ccccc1N=C2NCc1ccccc1 (stereo not shown) [C-257] | < 100 nM | < 200 nM | < 500 nM | 2000 to 5000 nM |  | 
Clc1ccccc1CNC1=Nc2ccccc2NC12CCCCC2 [C-1] | < 500 nM | < 500 nM | < 1000 nM | 20000 to 50000 nM |  | 
c1ccc(CNC2=Nc3ccccc3NC23CCCCCC3)cc1 [C-214] | < 500 nM | < 500 nM | < 1000 nM | 10000 to 20000 nM |  | 
FC(F)(F)c1cccc2c1N=C(NCc1ccccc1)C1(CCCCC1)N2 [C-254] | < 50 nM | < 500 nM | < 500 nM | 5000 to 10000 nM |  | 
Fc1cc(Cl)ccc1CNC1=Nc2ccccc2NC12CCNCC2 [N-61] | < 50 nM | < 50 nM | < 50 nM | 20000 to 50000 nM |  | 
Cc1cc(C)cc(CNC2=Nc3cc(Cl)c(Cl)cc3NC23CCCCCC3)c1 [C-262] | < 100 nM | < 500 nM | < 500 nM | 10000 to 20000 nM |  | 
CC(=O)NC1CCC2(CC1)Nc1ccccc1N=C2NCc1cccc(Cl)c1 (stereo not shown) [C-111] | < 500 nM | < 1000 nM | < 1000 nM | 10000 to 20000 nM |  | 
Cc1cccc(CNC2=Nc3cc(Cl)c(Cl)cc3NC23CCCCC3)c1 [C-268] |  | < 100 nM | < 500 nM | 10000 to 20000 nM |  | 
Fc1ccc(CNC2=Nc3ccccc3NC23CCNCC3)c(F)c1 [N-221] |  | < 200 nM | < 200 nM | 20000 to 50000 nM |  | 
Clc1ccc(CNC2=Nc3ccccc3NC23CCSCC3)cc1 [O/S-169] |  | < 1000 nM | < 1000 nM | 20000 to 50000 nM |  | 
Fc1cccc(F)c1CNC1=Nc2ccccc2NC12CCSCC2 [O/S-351] |  | < 1000 nM | < 1000 nM | 50000 to 100000 nM |  | 
Fc1cccc(F)c1CNC1=Nc2ccccc2NC12CCCCC2 [C-222] |  | < 200 nM | < 1000 nM | 20000 to 50000 nM |  | 
c1ccc(CNC2=Nc3ccccc3NC23CCCNCC3)cc1 (stereo not shown) [N-212] |  | < 1000 nM | < 1000 nM | 10000 to 20000 nM |  | 
CCCCCCCC(=O)N1CCC2(CC1)Nc1ccccc1N=C2NCc1ccccc1 [N-216] |  | < 500 nM | < 500 nM | 10000 to 20000 nM |  | 
CC(CCc1ccccc1)NC1=Nc2ccccc2NC12CCOCC2 (stereo not shown) [O/S-353] |  | < 500 nM | < 2000 nM | 20000 to 50000 nM |  | 
Clc1cccc(CCNC2=Nc3ccccc3NC23CCCCC3)c1 [C-79] |  | < 500 nM | < 500 nM | 2000 to 5000 nM |  | 
Cc1cc2c(cc1C)NC1(CCNCC1)C(NCc1cccc(Cl)c1)=N2 [N-111] |  | < 10 nM | < 10 nM | 1000 to 2000 nM |  | 
CC(NC1=Nc2ccccc2NC12CCCCC2)c1ccccc1 (stereo not shown) [C-244] |  | < 1000 nM | < 1000 nM | 10000 to 20000 nM |  | 

Structure (SMILES) | IC50 [1, 4] | IC50 (Pfa1 cells) | IC50 [2, 5] | CC50 [3] | IC50 ([1]; BSO 50 μM, cell survival (AquaBluer), read-out: SH-SY5Y/BSO (Example B.1) IC50) | IC50 ([2]; glutamate 5 mM, 72 hours, cell survival, read-out: Ht22/GLU (Example B.2) IC50)
c1ccc(CNC2=Nc3ccccc3NC23CCCC3)cc1 [C-219] |  | < 2000 nM | < 5000 nM | 20000 to 50000 nM |  | 
c1ccc(CCNC2=Nc3ccccc3NC23CCNCC3)cc1 [N-226] |  | < 100 nM | < 100 nM | 10000 to 20000 nM |  | 
Cc1cc(C)cc(CNC2=Nc3ccccc3NC23CCSCC3)c1 [O/S-357] |  | < 500 nM | < 500 nM | 10000 to 20000 nM |  | 
c1ccc(CNC2=Nc3ccccc3NC23CCCCCCC3)cc1 [C-236] |  | < 500 nM | < 500 nM | 10000 to 20000 nM |  | 
FC(F)(F)c1cccc(CNC2=Nc3ccccc3NC23CCSCC3)c1 [O/S-189] |  | < 5000 nM | < 5000 nM | 50000 to 100000 nM |  | 
Fc1cc2c(cc1F)NC1(CCOCC1)C(NCc1ccccc1)=N2 [O/S-346] |  | < 500 nM | < 1000 nM | 50000 to 100000 nM |  | 
c1ccc(CCCNC2=Nc3ccccc3NC23CCNCC3)cc1 [N-228] |  | < 100 nM | < 50 nM | 2000 to 5000 nM |  | 
CC(CCc1ccccc1)NC1=Nc2ccccc2NC12CCCCC2 (stereo not shown) [C-233] |  | < 1000 nM | < 1000 nM | 20000 to 50000 nM |  | 
c1ccc(C(CNC2=Nc3ccccc3NC23CCCCC3)c2ccccc2)cc1 [C-229] |  | < 200 nM | < 1000 nM | 2000 to 5000 nM |  | 
Clc1cc2c(cc1Cl)NC1(CCCCCCC1)C(NCc1ccccc1)=N2 [C-237] |  | < 500 nM | < 500 nM | 10000 to 20000 nM |  | 
CN1CCC2(CC1)Nc1ccccc1N=C2NCc1ccccc1Cl [N-209] |  | < 100 nM | < 500 nM | 5000 to 10000 nM |  | 
FC(F)(F)c1cccc(CNC2=Nc3ccccc3NC23CCOCC3)c1 [O/S-23] |  | < 500 nM | < 1000 nM | 20000 to 50000 nM |  | 
c1ccc(CCCCNC2=Nc3ccccc3NC23CCCCC3)cc1 [C-232] |  | < 2000 nM | < 1000 nM | 20000 to 50000 nM |  | 
Fc1ccc(CNC2=Nc3ccccc3NC23CCCCC3)c(F)c1 [C-231] |  | < 500 nM | < 1000 nM | 20000 to 50000 nM |  | 
CC(C)(C)c1ccc(CNC2=Nc3ccccc3NC23CCNCC3)cc1 [N-227] |  | < 10 nM | < 10 nM | 500 to 1000 nM |  | 
Clc1ccc(CNC2=Nc3ccccc3NC23CCNCC3)cc1Cl [N-211] |  | < 10 nM | < 50 nM | 1000 to 2000 nM |  | 
Cc1cc2c(cc1C)NC1(CCNCC1)C(NCc1ccc(Cl)c(Cl)c1)=N2 [N-232] |  | < 10 nM | < 10 nM | 1000 to 2000 nM |  | 
COc1cccc(CNC2=Nc3ccccc3NC23CCCCC3)c1 [C-47] |  | < 500 nM | < 1000 nM | 20000 to 50000 nM |  | 
CCCCCCCCN1CCC2(CC1)Nc1ccccc1N=C2NCc1ccccc1 [N-234] |  | < 100 nM | < 100 nM | 5000 to 10000 nM |  | 
Clc1ccccc1CNC1=Nc2ccccc2NC12CCSCC2 [O/S-167] |  | < 500 nM | < 1000 nM | 20000 to 50000 nM |  | 
Clc1ccc(CNC2=Nc3cc(Cl)c(Cl)cc3NC23CCNCC3)cc1 [N-208] |  | < 10 nM | < 50 nM | 500 to 1000 nM |  | 
Fc1ccc(CNC2=Nc3ccccc3NC23CCCCCC3)c(F)c1 [C-242] |  | < 1000 nM | < 1000 nM | 10000 to 20000 nM |  | 
